Test results taken from publication PMC4676410 (Journal of medicinal chemistry, 2015).

What was measured:
[1] = tested on: laboratory-adapted HIV-1 strains; assay: microbe, parasite or virus in culture; type: cell-based
[2] = tested on: HIV-1HXB2 (CXCR4-tropic) pseudovirus; assay: Single-cycle infection assay in U87-CD4-CXCR4 cells; conditions: U87-CD4-CXCR4, HIV-1HXB2
HIV-1 Env pseudoviruses = type: cell-based; conditions: TZM-bl, HIV-1HXB2

| SMILES | IC50 ([1]; MT-2, HIV-1IIIB) | IC50 [2] | IC50 (HIV-1 Env pseudoviruses) | IC50 ([1]; Human immunodeficiency virus 1, MT2, MT-2, HIV-1IIIB) |
| --- | --- | --- | --- | --- |
| Cc1nc(C(NC(=O)c2ccc(-c3ccc(Cl)cc3)[nH]2)C2CCCCN2)sc1CO (stereo not shown) [NBD-11021A, 5-(4-Chlorophenyl)-N-((5-(hydroxymethyl)-4-methylthiazol-2-yl)-(piperidin-2-yl)methyl)-1H-pyrrole-2-carboxamide] | 1300 ± 200 nM | 3000 ± 400 nM | – | – |
| Cc1nc(C(NC(=O)c2ccc(-c3ccc(Cl)cc3)[nH]2)C2CCCCN2)sc1CO (stereo not shown) [NBD-11021B, 5-(4-Chlorophenyl)-N-((5-(hydroxymethyl)-4-methylthiazol-2-yl)-(piperidin-2-yl)methyl)-1H-pyrrole-2-carboxamide] | – | – | 2400 ± 100 nM | 1800 ± 50 nM |
